Values quoted from earlier work as cited in patent publication US10953063B2, “Method of treating select cancers using timed administration of plant extract from species Physalis pubescens and Hedyotis diffusa willd” (priority 2018, dated 2021).

Tested on: human leukemia cells
Settings: research findings

Q: Which “apoptosis in human leukemia cells” value does the source give for `Cc1cc2c(cc1O)C(=O)c1ccccc1C2=O` [2-Hydroxy-3-Methylanthraguinone] here?
A: The value was “induces apoptosis”.
